Laboratory results reported in patent US6048882A, “Prophylactic and therapeutic agent for hepatic diseases” (Nisshin Flour Milling Co., Ltd., priority 1995, dated 2000).
Counter-ions that a name gives are not always drawn. Like-named read-outs stand apart in the source and are kept apart here.

Assays:
[1] = tested on: experimental hepatopathy models prepared by administering carbon tetrachloride; assay: Inhibitory action on hepatopathy in hepatopathy models by carbon tetrachloride (lipid emulsion; serum GPT and GOT); format: in vivo, ddY strain male mice; conditions: Mus musculus, iv, 20 h, i.v., dose 1 μg/kg, one hour before carbon tetrachloride
Method: Carbon tetrachloride was diluted with olive oil to a concentration of 0.5% when administered. The present isoprenylamine derivatives were formulated into the lipid emulsions according to the method described in Pharmaceutical Example 8 and intravenously administered at a dose of 0.1-10 μg/kg one hour before the administration of carbon tetrachloride. 20 hours after the administration of carbon tetrachloride, blood samples were collected from animals under ether anesthesia and centrifuged. Then, serum GPT and GOT were determined and the respective inhibition rates were calculated on the bases of the serum GPT and GOT values obtained when the present isoprenylamine derivative was not administered being defined as 100, respectively.

[2] = tested on: experimental hepatopathy models prepared by administering carbon tetrachloride; assay: Inhibitory action on hepatopathy in hepatopathy models by carbon tetrachloride (suspension with 2% Tween 80; serum GPT and GOT); format: in vivo, ddY strain male mice; conditions: suspension with 2% Tween 80, i.v., dose 0.1 mg/kg, one hour before carbon tetrachloride
Method: (§1) In these tests, GPT (glutamic-pyruvic transaminase) and GOT (glutamic-oxaloacetic transaminase) were determined using kits for the determination of GPT and GOT upon the method by U. Lippi et al., Iatrozyme TA-Lq (available from Iatron Laboratories Inc.), wherein the NADH formed when enzymes act upon substrates can reduce nitrotetrazolium blue (NTB) via 1-methoxy-5-methylphenazinium methylsulfate (1-methoxy PMS) to form formazan, which is then subjected to colorimetric analysis at a wavelength of 560 nm.
Inhibitory actions of the present isoprenylamine derivatives was evaluated by inhibition rates of GPT and GOT in experimental hepatopathy models prepared by administering carbon tetrachloride.
The experimental hepatopathy model was prepared by intraperitoneal administration of 0.02 ml/kg carbon tetrachloride to ddY strain male mice (6 weeks old, body weight of about 30 g). Carbon tetrachloride was diluted with olive oil to a concentration of 0.5% when administered. […]
(§2) 20 hours after the administration of carbon tetrachloride, blood samples were collected from animals under ether anesthesia and centrifuged. Then, serum GPT and GOT were determined and the respective inhibition rates were calculated on the bases of the serum GPT and GOT values obtained when Compound 6 was not administered being defined as 100, respectively.

[3] = tested on: experimental hepatopathy models prepared by D-galactosamine administration; assay: Inhibitory action on hepatopathy in hepatopathy models by D-galactosamine (serum GPT and GOT); format: in vivo, Wistar strain male mice; conditions: iv, 24 h, lipid emulsion, i.v., dose 10 μg/kg, 2 hours after D-galactosamine
Method: as §1
Inhibitory action of lipid emulsions containing the present isoprenylamine derivatives was evaluated by inhibition rates of GPT and GOT in experimental hepatopathy models prepared by D-galactosamine administration.
The experimental hepatopathy model was prepared by intraperitoneal administration of D-galactosamine at 400 mg/kg to Wistar strain male […] weighing about 170 g. The present isoprenylamine derivative was formulated to a lipid emulsion according to the method described in Pharmaceutical Example 8, and was intravenously administered at a dose of 10-30 μg/kg 2 hours after the administration of D-galactosamine.
as §2, with “24” for “20”, “D-galactosamine administration,” for “administration of carbon tetrachloride,”, “form” for “from”, “the present isoprenylamine derivatives were” for “Compound 6 was”
For comparison, glycyrrhizin ammonium (Tokyo Kasei Co.) dissolved in distilled water was administered in a similar manner to that for the isoprenylamine derivatives, blood sampling and determination were conducted and the serum GPT and GOT inhibition rates were calculated.

Structure (SMILES): CC(C)=CCC/C(C)=C/CC/C(C)=C/CC/C(C)=C/CC/C(C)=C/CC/C(C)=C/CC/C(C)=C/CC/C(C)=C/CC/C(C)=C/CNCc1ccc2c(c1)OCO2 [Compound 6, N-solanesylpiperonylamine hydrochloride]
- inhibition in vivo at 0.001 mg/kg ([1]; read-out: GOT inhibition): 50%
- inhibition in vivo at 0.001 mg/kg ([1]; read-out: GPT inhibition): 40%
- GOT inhibition [2]: 37%
- GPT inhibition [2]: 34%
- inhibition in vivo at 0.01 mg/kg ([3]; read-out: GOT inhibition): 40%
- inhibition in vivo at 0.01 mg/kg ([3]; read-out: GPT inhibition): 40%

Structure (SMILES): CC(C)=CCC/C(C)=C/CC/C(C)=C/CC/C(C)=C/CC/C(C)=C/CC/C(C)=C/CC/C(C)=C/CNCc1ccc2c(c1)OCO2 [Compound 4, N-farnesylgeranylgeranylpiperonylamine hydrochloride]
- inhibition in vivo at 0.001 mg/kg ([1]; read-out: GOT inhibition): 28%
- inhibition in vivo at 0.001 mg/kg ([1]; read-out: GPT inhibition): 22%
- inhibition in vivo at 0.01 mg/kg ([3]; read-out: GOT inhibition): 31%
- inhibition in vivo at 0.01 mg/kg ([3]; read-out: GPT inhibition): 30%
